Test results taken from patent US9963480B2, “Nucleoside phosphoramidate compound and use thereof” (priority 2013, dated 2018).

How the values were obtained:
Format in all cases: cell-based
[1] = tested on: J399EM (HCV genotype 2a) virus; assay: Antiviral activity assay in the cell-culture-derived infectious HCV (HCVcc) system; details: for half maximal effective concentration (EC50) against the HCVcc GT2a viruses, in words: in vitro HCVcc system
Experimental: The compound according to the above example 1 was used in this experiment. The compound was formulated into a 10 mM mother liquid with DMSO, diluted to 500 nM by DMEM complete culture medium containing 0.5% of DMSO, followed by 4-fold dilution successively, and six concentrations were obtained. The positive control was diluted to 10 μM by DMEM complete culture medium containing 0.5% of DMSO, followed by 4-fold successively, and six concentrations were obtained.
(§1) Huh 7.5.1 cells, provided by Shanghai Institute of Materia Medica, Chinese Academy of Sciences.
J399EM (HCV genotype 2a) virus, i.e. a full length HCV mutant strain transfected with EGFP (enhanced green fluorescent protein) was used, which had the same infection capacity as the wild type JFH-1. The NS5A-EGFP fusion protein fluorescence was observed directly in infected cells by inserting EGFP coding sequence in the NS5A region. J399EM was provided by Shanghai Institute of Materia Medica, Chinese Academy of Sciences.
(§2) • 1) Huh 7.5.1 cells preparation: collecting the Huh7.5.1 cells in logarithmic phase, resuspending in DMEM complete culture medium, seeding into 96-well plates (7×10^3 cells/well), and incubating in a 37° C., 5% CO2 incubator for 24 h; • 2) virus infection: resuspending J399EM viruses in DMEM complete culture medium, adding the virus supernatant (MOI≈0.1) to the above 96-well plates, and washing with PBS after 8 hours of infection; • 3) drug treatment: adding various concentrations of the compounds to the Huh7.5.1 cells infected by J399EM viruses, with each concentration in duplicate; setting the control group with zero percent effect (ZPE) and the control group with hundred percent effect (HPE); replacing the compound with the DMEM complete culture medium containing 0.5% DMSO in ZPE group, and using the cells not infected with viruses in HPE group. • 4) cells incubation: incubating the 96-well plates in a 37° C., 5% CO2 incubator for 72 hr; • 5) anti-HCV activity detection: reading the relative fluorescence units (RFU) of each well by EnVision® Multi label Plate readers after incubation, and calculating the anti-HCV activity of the compounds using the obtained data according to the following formula: Inhibition %=(RFUZPE−RFUCPD)/(RFUZPE−RFUHPE)×100 • wherein RFUZPE represents the relative fluorescence units of the control group with zero percent effect and RFUCPD represents the relative fluorescence units of the corresponding compound group, and RFUHPE represents the relative fluorescence units of the control group with hundred percent effect. • 6) Cell viability detection: adding MTT solution to each well, incubating in a 37° C., 5% CO2 incubator for 4 hr, followed by addition of MTT dissolving solution, reading optical density (OD) of each well at 570 nm by the Multi label Plate readers after 6 hr, calculating the cytotoxicity of the compounds using the obtained data according to the following formula: Viability %=ODCPD/ODZPE×100 • wherein ODZPE represents the optical density of the control group with zero percent effect, and ODCPD represents the optical density of the corresponding compound; • 7) Data processing: processing the Inhibition %, Viability % by GraphPad Prism Software respectively, and obtaining the half maximal effective concentration (EC50) values and half maximal cytotoxic concentration (CC50) values of the compounds against the HVCcc GT2a viruses.

Huh 7.5.1 cells = assay: Cell viability detection (MTT) in the HCVcc system; details: in vitro HCVcc system
Experimental: as §1, §2

HCV 1b replicon = assay: Antiviral activity assay in HCV replicon system (Huh7 1b cells, luciferase reporter); details: Hepatitis C virus, Huh-7; Huh7 1b cells with HCV 1b replicon, Bright-Glo luciferase, 72 h; read-out: EC50
From the text: The cell line Huh7 1b, which was provided by WuXi AppTec Co., Ltd. in Shanghai, contained an HCV 1b replicon with a stable Luciferase (Luc) reporter. It was constructed by cloning HCV nonstructural protein gene, neo (G418 resistance) and luciferase reporter gene into the pBR vector through gene recombination technology. Then the vector carrying the HCV replicon was transfected into Huh7 cells, and the transfected Huh7 cells were screened by G418 resistance. The HCV replicon was stably replicated, and the related protein and luciferase were stably expressed in Huh7 cells. The cells model was used for in-vitro screen of anti-HCV compounds. The anti-HCV activity of the compounds was measured by detecting the level of luciferase expression. See Lohmann V, et al. 1999. Replication of subgenomic hepatitis C virus RNAs in a hepatoma cell line. Science. 285(5424):110-113.
The control drug used in this experimental example was the compound of Example 25 in WO 2008/121634 (PCT/US2008/058183), i.e. (S)-2-{[(2R,3R,4R,5R)-5-(2,4-dioxo-3,4-dihydro-2H-pyrimidin-1-yl)-4-fluoro-3-hydr oxy-4-methyl-tetrahydro-furan-2-ylmethoxy]-phenoxy-phosphorylamino}-propanoic acid isopropyl ester. This compound was prepared according to the method described in J. Org. chem, 2011, 76, 8311-8319, and identified by H-NMR and mass spectrometry.
• 2.1 compound preparation: adding each of the compounds listed in Table 2 to 96-well plates using a POD™ 810 Automation Platform (LabCyte Corporation, USA), with 10 μM of each of the compounds as a starting concentration and in duplicate; serially diluting each of the compounds in 3-fold fashion and formulating 10 concentrations, with the final concentration of DMSO being 0.5%; • 2.2 cells preparation: seeding the Huh71b cells into 96-well plates respectively with a volume of 125 μl and 8×10^3 cells/well, and incubating in a 37° C., 5% CO2 incubator for 72 h; • 2.3 detection of cell activity: adding 30 μl per cell of the CellTiter-Fluor™ Reagent, incubating in a 37° C., 5% CO2 incubator for 1 h, measuring the fluorescence signal values with a fluorometer, and using the obtained data for calculation of cytotoxicities of the compounds; • 2.4 Bright-Glo detection: adding 100 μl per well of the Bright-Glo™ Luciferase Substrate, using a chemiluminescence detection system EnVision™ (PerkinElmer, USA) to detect the fluorescence signal values within 5 minutes, and using the obtained data for calculation of potencies of the compounds. • 2.5 data processing: converting the obtained data to a percentage of cell viability (Viability %) using the following formula:
[formula] • CPD: fluorescence signal value of the well added with the compound • ZPE (Zero percent effect): fluorescence signal value of the control well with zero percent effect. • Processing the raw data to calculate a percentage of inhibition (Inhibition %) using the following formula:
[formula] • CPD: fluorescence signal value of the well added with the compound; • HPE (Hundred percent effect): fluorescence signal value of the control well with hundred percent effect; • ZPE (Zero percent effect): fluorescence signal value of the control well with zero percent effect.
The inhibition percentage was processed by the GraphPad Prism software to obtain the corresponding curves and EC50 values.

[2] = Cell viability detection (MTT) in the HCVcc system; details: human, Huh 7.5.1 cells infected with J399EM virus (HCVcc); Huh 7.5.1 cells, MTT, 72 hr
Experimental: as §1, §2

Structure (SMILES) | half maximal effective concentration (EC50) against the HCVcc GT2a viruses, in words [1] | half maximal cytotoxic concentration (CC50), in words (Huh 7.5.1 cells) | EC50 (HCV 1b replicon) | EC50 ([1]; Hepatitis C virus, Huh-7.5.1, 72 h) | CC50 at 72 h [2]
CC(C)OC(=O)[C@H](C)NP(=O)(OC[C@H]1O[C@@H](n2ccc(=O)[nH]c2=O)[C@](C)(F)[C@@H]1O)Oc1cccc(-c2ccccc2)c1 (stereo partly drawn) [Example 2, (2S)-2-((([1,1′-biphenyl]-3-yloxy)(((2R,3R,4R,5R)-5-(2,4-dioxo-3,4-dihydropyrimidin-1(2H)-yl)-4-fluoro-3-hydroxy-4-methyltetrahydrofuran-2-yl)methoxy)phosphoryl)amino)propanoic Acid Isopropyl Ester] | low | high | 105 nM |  | 
CC(C)OC(=O)[C@H](C)NP(=O)(OC[C@H]1O[C@@H](n2ccc(=O)[nH]c2=O)[C@](C)(F)[C@@H]1O)Oc1ccc(-c2ccc(F)cc2)cc1 (stereo partly drawn) [Example 5] | low | high | 61 nM |  | 
CC(C)OC(=O)[C@H](C)NP(=O)(OC[C@H]1O[C@@H](n2ccc(=O)[nH]c2=O)[C@](C)(F)[C@@H]1O)Oc1ccc(-c2csnn2)cc1 (stereo partly drawn) [Example 12] | low | high | 637 nM |  | 
CC(C)OC(=O)[C@H](C)NP(=O)(OC[C@H]1O[C@@H](n2ccc(=O)[nH]c2=O)[C@](C)(F)[C@@H]1O)Oc1ccc(-c2nccs2)cc1 (stereo partly drawn) [Example 16] | low | high | 3870 nM |  | 
CC(C)OC(=O)[C@H](C)NP(=O)(OC[C@H]1O[C@@H](n2ccc(=O)[nH]c2=O)[C@](C)(F)[C@@H]1O)Oc1ccc(-c2ccc(C#N)cc2)cc1 (stereo partly drawn) [Example 18] | low | high | 314 nM |  | 
CC(C)OC(=O)[C@H](C)NP(=O)(OC[C@H]1O[C@@H](n2ccc(=O)[nH]c2=O)[C@](C)(F)[C@@H]1O)Oc1ccc(-c2ccccc2)c(F)c1 (stereo partly drawn) [Example 28, (2S)-2-(((2-fluoro-[1,1′-biphenyl]-4-yloxy)(((2R,3R,4R,5R)-5-(2,4-dioxo-3,4-dihydropyrimidin-1(2H)-yl)-4-fluoro-3-hydroxy-4-methyltetrahydrofuran-2-yl)methoxy)phosphoryl)amino)propanoic Acid Isopropyl Ester] | low | high | 123 nM |  | 
CC(C)OC(=O)[C@H](C)NP(=O)(OC[C@H]1O[C@@H](n2ccc(=O)[nH]c2=O)[C@](C)(F)[C@@H]1O)Oc1ccc(-c2cscn2)cc1 (stereo partly drawn) [Example 38, (2S)-2-(((4-(thiazol-4-yl)phenyloxy)(((2R,3R,4R,5R)-5-(2,4-dioxo-3,4-dihydropyrimidin-1(2H)-yl)-4-fluoro-3-hydroxy-4-methyltetrahydrofuran-2-yl)methoxy)phosphoryl)amino)propanoic Acid Isopropyl Ester] | low | high | 100 nM |  | 
Cc1cc(-c2ccc(OP(=O)(N[C@@H](C)C(=O)OC(C)C)OC[C@H]3O[C@@H](n4ccc(=O)[nH]c4=O)[C@](C)(F)[C@@H]3O)cc2)ccc1F (stereo partly drawn) [Example 41, (2S)-2-((((4′-fluoro-3′-methyl-[1,1′-biphenyl]-4-yl)oxy)(((2R,3R,4R,5R)-5-(2,4-dioxo-3,4-dihydropyrimidin-1(2H)-yl)-4-fluoro-3-hydroxy-4-methyltetrahydrofuran-2-yl)methoxy)phosphoryl)amino)propanoic Acid Isopropyl Ester] |  |  | 50 nM |  | 
Cc1ccc(-c2ccc(OP(=O)(N[C@@H](C)C(=O)OC(C)C)OC[C@H]3O[C@@H](n4ccc(=O)[nH]c4=O)[C@](C)(F)[C@@H]3O)cc2)cc1 (stereo partly drawn) [Example 42, (2S)-2-((((4′-methyl-[1,1′-biphenyl]-4-yl)oxy)(((2R,3R,4R,5R)-5-(2,4-dioxo-3,4-dihydropyrimidin-1(2H)-yl)-4-fluoro-3-hydroxy-4-methyltetrahydrofuran-2-yl)methoxy)phosphoryl)amino)propanoic Acid Isopropyl Ester] |  |  | 126 nM |  | 
Cc1cc2c(F)c(O[P@@](=O)(N[C@@H](C)C(=O)OC(C)C)OC[C@H]3O[C@@H](n4ccc(=O)[nH]c4=O)[C@](C)(F)[C@@H]3O)ccc2n1C [Example 43, (2S)-2-(((R)-((4-fluoro-1,2-dimethyl-1H-indol-5-yl)oxy)(((2R,3R,4R,5R)-5-(2,4-dioxo-3,4-dihydropyrimidin-1(2H)-yl)-4-fluoro-3-hydroxy-4-methyltetrahydrofuran-2-yl)methoxy)phosphoryl)amino)propanoic Acid Isopropyl Ester] |  |  | 69 nM |  | 
CC(C)OC(=O)[C@H](C)NP(=O)(OC[C@H]1O[C@@H](n2ccc(=O)[nH]c2=O)[C@](C)(F)[C@@H]1O)Oc1ccccc1 (stereo partly drawn) [Positive control, (S)-2-{[(2R,3R,4R,5R)-5-(2,4-dioxo-3,4-dihydro-2H-pyrimidin-1-yl)-4-fluoro-3-hydroxy-4-methyl-tetrahydro-furan-2-ylmethoxy]-phenoxy-phosphorylamino}-propanoic acid isopropyl ester, reference compound] |  |  | 117 nM | 173 nM | > 10000 nM
